Structures can show the parent of a compound that is named as a salt.
target: T1, recombinant guanylate cyclase reporter cell line (Rattus norvegicus, UniProt P19686+P20595); experiment: B-2. Action on recombinant guanylate cyclase reporter cell line; assay type: cell-based; settings: MEC = minimal effective concentration; in some cases mean values from individual determinations
T1 construct: expressed in transfected cells
T1 sequence (P20595 1-619): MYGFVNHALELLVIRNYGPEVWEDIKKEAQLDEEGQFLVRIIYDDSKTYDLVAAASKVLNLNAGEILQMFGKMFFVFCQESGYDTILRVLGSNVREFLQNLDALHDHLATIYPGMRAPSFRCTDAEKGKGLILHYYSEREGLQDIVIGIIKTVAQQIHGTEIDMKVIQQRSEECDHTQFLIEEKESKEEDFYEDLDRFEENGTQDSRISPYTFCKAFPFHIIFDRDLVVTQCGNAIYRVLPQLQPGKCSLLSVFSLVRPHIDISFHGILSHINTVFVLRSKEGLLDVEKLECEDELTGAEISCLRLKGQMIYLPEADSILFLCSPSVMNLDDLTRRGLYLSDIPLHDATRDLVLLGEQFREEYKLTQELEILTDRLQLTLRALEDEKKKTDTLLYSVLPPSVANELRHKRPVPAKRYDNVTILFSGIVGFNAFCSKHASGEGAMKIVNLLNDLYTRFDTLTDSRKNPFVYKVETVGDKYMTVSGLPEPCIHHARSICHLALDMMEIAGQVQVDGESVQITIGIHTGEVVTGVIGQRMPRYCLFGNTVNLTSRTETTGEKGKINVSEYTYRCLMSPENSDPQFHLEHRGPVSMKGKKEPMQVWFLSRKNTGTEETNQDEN
T1 sequence (P19686 1-690): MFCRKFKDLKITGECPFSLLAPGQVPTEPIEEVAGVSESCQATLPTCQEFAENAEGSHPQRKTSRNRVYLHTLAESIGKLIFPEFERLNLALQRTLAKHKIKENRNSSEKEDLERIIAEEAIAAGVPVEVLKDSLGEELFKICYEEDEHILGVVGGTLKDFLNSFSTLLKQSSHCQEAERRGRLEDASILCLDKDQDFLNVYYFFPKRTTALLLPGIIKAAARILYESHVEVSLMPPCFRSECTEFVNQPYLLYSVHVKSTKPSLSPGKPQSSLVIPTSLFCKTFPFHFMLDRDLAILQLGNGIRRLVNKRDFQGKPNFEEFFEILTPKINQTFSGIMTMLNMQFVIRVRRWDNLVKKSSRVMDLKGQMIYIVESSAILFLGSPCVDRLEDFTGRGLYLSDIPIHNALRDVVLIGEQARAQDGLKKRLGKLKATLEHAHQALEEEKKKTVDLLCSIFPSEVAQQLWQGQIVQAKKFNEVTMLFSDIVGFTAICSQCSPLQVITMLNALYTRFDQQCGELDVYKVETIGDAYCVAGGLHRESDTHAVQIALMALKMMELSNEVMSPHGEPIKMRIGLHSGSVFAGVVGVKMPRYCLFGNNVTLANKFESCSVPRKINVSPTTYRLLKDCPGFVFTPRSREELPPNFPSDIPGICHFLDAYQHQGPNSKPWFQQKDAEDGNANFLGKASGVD
Procedure: B-2. Action on Recombinant Guanylate Cyclase Reporter Cell Line
The cellular action of the compounds according to the invention is determined on a recombinant guanylate cyclase reporter cell line, as described in F. Wunder et al., Anal. Biochem. 339, 104-112 (2005).
Representative MEC values (MEC=minimal effective concentration) for the compounds according to the invention are shown in the following table (in some cases as mean values obtained from individual determinations): […]

Row | Structure (SMILES) | MEC
1 | Cc1nc2c(OCc3c(F)cccc3F)cccn2c1C(=O)NC(CN)CC(F)(F)F (racemic) [Example 2, rac-N-(1-Amino-4,4,4-trifluorobutan-2-yl)-8-[(2,6-difluorobenzyl)oxy]-2-methylimidazo[1,2-a]-pyridine-3-carboxamide] | 0.65 µM
2 | Cc1nc2c(OCc3c(F)cccc3F)cccn2c1C(=O)NC(CN)CC(C(F)(F)F)C(F)(F)F (racemic) [Example 5, rac-N-[1-amino-5,5,5-trifluoro-4-(trifluoromethyl)pentan-2-yl]-8-[(2,6-difluorobenzyl)oxy]-2-methylimidazo[1,2-a]-pyridine-3-carboxamide trifluoroacetate] | 1.00 µM
3 | Cc1nc2c(OCc3c(F)cccc3F)cccn2c1C(=O)NC(CN)c1ccc(F)cc1 (racemic) [Example 9, rac-N-[2-Amino-1-(4-fluorophenyl)ethyl]-8-[(2,6-difluorobenzyl)oxy]-2-methylimidazo[1,2-a]-pyridine-3-carboxamide] | 0.30 µM
4 | Cc1nc2c(OCc3c(F)cccc3F)cccn2c1C(=O)NC(CN)c1ccc(F)c(F)c1 (racemic) [Example 11, rac-N-[2-Amino-1-(3,4-difluorophenyl)ethyl]-8-[(2,6-difluorobenzyl)oxy]-2-methylimidazo[1,2-a]pyridine-3-carboxamide] | 0.30 µM
5 | Cc1nc2c(OCc3c(F)cccc3F)cccn2c1C(=O)NC(CN)c1ccc(Cl)cc1 (racemic) [Example 14, rac-N-[2-Amino-1-(4-chlorophenyl)ethyl]-8-[(2,6-difluorobenzyl)oxy]-2-methylimidazo[1,2-a]-pyridine-3-carboxamide Dihydrochloride] | 1.00 µM
6 | Cc1nc2c(OCc3c(F)cccc3F)cccn2c1C(=O)NC(CN)c1ccccc1 (racemic) [Example 16, rac-N-(2-Amino-1-phenylethyl)-8-[(2,6-difluorobenzyl)oxy]-2-methylimidazo[1,2-a]pyridine-3-carboxamide Dihydrochloride] | 0.30 µM
7 | Cc1nc2c(OCc3c(F)cccc3F)cccn2c1C(=O)NC(C)CN (racemic) [Example 17, rac-N-(1-aminopropan-2-yl)-8-[(2,6-difluorobenzyl)oxy]-2-methylimidazo[1,2-a]-pyridine-3-carboxamide dihydrochloride] | 1.00 µM
8 | Cc1nc2c(OCc3c(F)cccc3F)cc(Cl)cn2c1C(=O)NCC(C)N (racemic) [Example 23, rac-N-(2-aminopropyl)-6-chloro-8-[(2,6-difluorobenzyl)oxy]-2-methylimidazo[1,2-a]-pyridine-3-carboxamide] | 0.30 µM
9 | Cc1nc2c(OCc3c(F)cccc3F)cccn2c1C(=O)NC1CNc2ccccc21 (racemic) [Example 28, rac-8-[(2,6-difluorobenzyl)oxy]-N-(2,3-dihydro-1H-indol-3-yl)-2-methylimidazo[1,2-a] pyridine-3-carboxamide] | 0.30 µM
10 | Cc1nc2c(OCc3c(F)cccc3F)cccn2c1C(=O)NCC(C)N (racemic) [Example 34, rac-N-(2-aminopropyl)-8-[(2,6-difluorobenzyl)-oxy]-2-methylimidazo[1,2-a]pyridine-3-carboxamide dihydrochloride] | 1.00 µM
11 | Cc1nc2c(OCC3CCCCC3)cccn2c1C(=O)NC(CN)c1ccc(Cl)cc1 (racemic) [Example 43, rac-N-[2-Amino-1-(4-chlorophenyl)ethyl]-8-(cyclohexylmethoxy)-2-methylimidazo[1,2-a]-pyridine-3-carboxamide] | 1.00 µM
12 | Cc1nc2c(OCC3CCCCC3)cccn2c1C(=O)NC(CN)c1ccccc1 (racemic) [Example 44, rac-N-(2-Amino-1-phenylethyl)-8-(cyclohexylmethoxy)-2-methylimidazo[1,2-a]pyridine-3-carboxamide] | 0.30 µM
13 | Cc1nc2c(OCC3CCCCC3)cccn2c1C(=O)NC(CN)c1ccc(F)c(F)c1 (racemic) [Example 46, rac-N-[2-Amino-1-(3,4-difluorophenyl)ethyl]-8-(cyclohexylmethoxy)-2-methylimidazo[1,2-a]-pyridine-3-carboxamide] | 1.00 µM
14 | Cc1nc2c(OCc3c(F)cccc3F)cc(Cl)cn2c1C(=O)NC1CNc2ccccc21 (racemic) [Example 49, rac-6-Chloro-8-[(2,6-difluorobenzyl)oxy]-N-(2,3-dihydro-1H-indol-3-yl)-2-methylimidazo[1,2-a]-pyridine-3-carboxamide] | 0.30 µM
15 | Cc1nc2c(OCc3c(F)cccc3F)cccn2c1C(=O)NC1CCNc2ccccc21 (racemic) [Example 50, rac-8-[(2,6-Difluorobenzyl)oxy]-2-methyl-N-(1,2,3,4-tetrahydroquinolin-4-yl)imidazo[1,2-a]-pyridine-3-carboxamide] | 0.03 µM

Other lines, results leading:

Row | MEC | Structure (SMILES)
16 | 0.20 µM | Cc1cc(OCc2c(F)cccc2F)c2nc(C)c(C(=O)NC3CCC(N)C3)n2c1 (mixture of isomers) [Example 308, N-(3-aminocyclopentyl)-8-[(2,6-difluorobenzyl)oxy]-2,6-dimethylimidazo[1,2-a]pyridine-3-carboxamide (Stereoisomer Mixture)]
17 | 0.30 µM | Cc1cc(OCc2c(F)cccc2F)c2nc(C)c(C(=O)NC3CNCC3C(F)(F)F)n2c1 (mixture of isomers) [Example 313, 8-[(2,6-Difluorobenzyl)oxy]-2,6-dimethyl-N-[4-(trifluoromethyl)pyrrolidin-3-yl]imidazo[1,2-a]pyridine-3-carboxamide (Mixture of Stereoisomers)]
18 | 1.00 µM | Cc1cc(OCc2c(F)cccc2F)c2nc(C)c(C(=O)NC3CC(N)C3)n2c1 (mixture of isomers) [Example 334, N-(3-aminocyclobutyl)-8-[(2,6-difluorobenzyl)oxy]-2,6-dimethylimidazo[1,2-a]pyridine-3-carboxamide (cis/trans Mixture)]
19 | 0.30 µM | Cc1cc(OCc2c(F)cccc2F)c2nc(C)c(C(=O)NC3CC(C)(C)C3N)n2c1 (mixture of isomers) [Example 358, N-(2-amino-3,3-dimethylcyclobutyl)-8-[(2,6-difluorobenzyl)oxy]-2,6-dimethylimidazo[1,2-a]pyridine-3-carboxamide Formate (Isomer Mixture)]
20 | 1.00 µM | Cc1nc2c(OCc3c(F)cccc3F)cccn2c1C(=O)NC(CN)COc1ccc(F)cc1 (racemic) [Example 58, rac-N-[1-amino-3-(4-fluorophenoxy)propan-2-yl]-8-[(2,6-difluorobenzyl)oxy]-2-methylimidazo[1,2-a]pyridine-3-carboxamide]
21 | 3.00 µM | Cc1nc2c(OCc3c(F)cccc3F)cccn2c1C(=O)NC(CN)COc1ccccc1 (racemic) [Example 59, rac-N-(1-amino-3-phenoxypropan-2-yl)-8-[(2,6-difluorobenzyl)oxy]-2-methylimidazo[1,2-a]-pyridine-3-carboxamide dihydrochloride]
22 | 0.30 µM | Cc1nc2c(OCc3c(F)cccc3F)cccn2c1C(=O)NC(CN)COC(C)C (racemic) [Example 63, rac-N-(1-Amino-3-isopropoxypropan-2-yl)-8-[(2,6-difluorobenzyl)oxy]-2-methylimidazo[1,2-a]-pyridine-3-carboxamide]
23 | 1.00 µM | Cc1nc2c(OCc3c(F)cccc3F)cccn2c1C(=O)NC1CNc2ccccc2C1 (racemic) [Example 75, rac-8-[(2,6-Difluorobenzyl)oxy]-2-methyl-N-(1,2,3,4-tetrahydroquinolin-3-yl)imidazo[1,2-a]-pyridine-3-carboxamide]
24 | 0.30 µM | Cc1cc(OCc2c(F)cccc2F)c2nc(C)c(C(=O)NC3CNc4ccccc4C3)n2c1 (racemic) [Example 76, rac-8-[(2,6-difluorobenzyl)oxy]-2,6-dimethyl-N-(1,2,3,4-tetrahydroquinolin-3-yl)imidazo[1,2-a]-pyridine-3-carboxamide]

— US9624214B2, “Amino-substituted imidazo[1,2-a]pyridinecarboxamides and their use” (BAYER PHARMA AKTIENGESELLSCHAFT, priority 2012, dated 2017)
